Assay results reported in patent publication US12054463B2, “Radiolabeled microtubule imaging compounds and uses thereof” (The Trustees of Columbia University in the City of New York, priority 2017, dated 2024).

Key:
[1] = biological target: α2A-2C; test: Affinity to brain targets (panel); type: binding
[2] = biological target: T1, Oxytocin (Homo sapiens, UniProt P30559); test: Affinity to brain targets (panel); type: binding
T1 sequence (P30559 1-389): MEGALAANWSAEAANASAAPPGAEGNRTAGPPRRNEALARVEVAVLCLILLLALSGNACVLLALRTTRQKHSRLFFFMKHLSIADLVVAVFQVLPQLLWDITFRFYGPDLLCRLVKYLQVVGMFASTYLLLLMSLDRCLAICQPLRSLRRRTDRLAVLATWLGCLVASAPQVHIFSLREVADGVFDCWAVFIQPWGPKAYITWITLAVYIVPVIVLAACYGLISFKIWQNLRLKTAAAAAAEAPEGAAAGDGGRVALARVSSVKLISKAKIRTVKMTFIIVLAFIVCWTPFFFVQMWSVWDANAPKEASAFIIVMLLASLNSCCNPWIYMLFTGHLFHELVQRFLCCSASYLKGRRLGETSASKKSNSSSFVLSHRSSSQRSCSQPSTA

[3] = test system: Microtubule; conditions: MT; reference 12; cited from earlier work
[4] = biological target: H2 (Homo sapiens, UniProt P25021); test: Affinity to brain targets (panel); type: binding; conditions: H2: histamine
[5] = biological target: β1-3; test: Affinity to brain targets (panel); type: binding
[6] = biological target: Adenosine; test: Affinity to brain targets (panel); type: binding; conditions: Adenosine (A)
[7] = biological target: 5-HT3-7; test: Affinity to brain targets (panel); type: binding
[8] = biological target: H1 (Homo sapiens, UniProt P35367); test: Affinity to brain targets (panel); type: binding; conditions: H1: histamine
[9] = biological target: D1-D5; test: Affinity to brain targets (panel); type: binding
[10] = biological target: AMPA; test: Affinity to brain targets (panel); type: binding
[11] = test system: MT; conditions: listed under MT; reference 12; cited from earlier work
[12] = biological target: NT; test: Affinity to brain targets (panel); type: binding; conditions: NT: neurotrophin
[13] = biological target: Na+ Channel; test: Affinity to brain targets (panel); type: binding
[14] = biological target: I; test: Affinity to brain targets (panel); type: binding
[15] = biological target: Smoothened (Homo sapiens, UniProt Q99835); test: Affinity to brain targets (panel); type: binding
[16] = biological target: HERG (Homo sapiens, UniProt Q12809); test: Affinity to brain targets (panel); type: binding; conditions: HERG: human ether-a-go-go
[17] = test system: tumor xenografts; conditions: references 12-14; cited from earlier work
[18] = biological target: EP; test: Affinity to brain targets (panel); type: binding; conditions: EP: prostanoid receptors
[19] = biological target: Sigma2 (Homo sapiens, UniProt Q5BJF2); test: Affinity to brain targets (panel); type: binding; conditions: Sigma2 (Sigma 2)
[20] = biological target: KA; test: Affinity to brain targets (panel); type: binding; conditions: KA (KAR): Kainate
[21] = references 12-14; cited from earlier work
[22] = biological target: Ca++ channel; test: Affinity to brain targets (panel); type: binding
[23] = biological target: NMDA; test: Affinity to brain targets (panel); type: binding
[24] = biological target: PBR (Homo sapiens, UniProt P30536); test: Affinity to brain targets (panel); type: binding
[25] = biological target: Sigma1 (Homo sapiens, UniProt Q99720); test: Affinity to brain targets (panel); type: binding
[26] = biological target: NK; test: Affinity to brain targets (panel); type: binding; conditions: NK: neurokinin
[27] = biological target: BZP; test: Affinity to brain targets (panel); type: binding; conditions: BZP: benzodiazepine
[28] = biological target: PKC; test: Affinity to brain targets (panel); type: binding; conditions: PKC: Protein kinase C
[29] = biological target: α1A-1C; test: Affinity to brain targets (panel); type: binding
[30] = biological target: GABA; test: Affinity to brain targets (panel); type: binding
[31] = test system: panel of kinases; conditions: cited from earlier work
[32] = biological target: DOR (Homo sapiens, UniProt P41143); test: Affinity to brain targets (panel); type: binding; conditions: DOR: delta opioid receptors
[33] = biological target: KOR (Homo sapiens, UniProt P41145); test: Affinity to brain targets (panel); type: binding; conditions: KOR: kappa opioid receptors
[34] = biological target: DAT (Homo sapiens, UniProt Q01959); test: Affinity to brain targets (panel); type: binding; conditions: DAT: dopamine transporters
[35] = biological target: M; test: Affinity to brain targets (panel); type: binding; conditions: M: muscarinic
[36] = biological target: 5-HT2A-2C; test: Affinity to brain targets (panel); type: binding
[37] = biological target: NET (Homo sapiens, UniProt P23975); test: Affinity to brain targets (panel); type: binding; conditions: NET: norepinephrine transporter
[38] = biological target: NOP (Homo sapiens, UniProt P41146); test: Affinity to brain targets (panel); type: binding
[39] = biological target: mGluR; test: Affinity to brain targets (panel); type: binding; conditions: mGluR (mGluRs): metabotropic glutamate receptors
[40] = biological target: MOR (Homo sapiens, UniProt P35372); test: Affinity to brain targets (panel); type: binding; conditions: MOR: mu opioid receptor
[41] = biological target: 5-HT1A-1E; test: Affinity to brain targets (panel); type: binding
[42] = biological target: CB1, CB2; test: Affinity to brain targets (panel); type: binding
[43] = biological target: H3, H4; test: Affinity to brain targets (panel); type: binding; conditions: H3, H4: histamine
[44] = biological target: VMAT; test: Affinity to brain targets (panel); type: binding; conditions: VMAT (VMAT 1,2): vesicular monoamine transporter
[45] = biological target: SERT (Homo sapiens, UniProt P31645); test: Affinity to brain targets (panel); type: binding; conditions: SERT: serotonin transporter
[46] = biological target: MDR1 (Homo sapiens, UniProt P08183); test: Affinity to brain targets (panel); type: binding; conditions: MDR1: multidrug resistance
MDR1, sequence (P08183 whole entry, species assumed): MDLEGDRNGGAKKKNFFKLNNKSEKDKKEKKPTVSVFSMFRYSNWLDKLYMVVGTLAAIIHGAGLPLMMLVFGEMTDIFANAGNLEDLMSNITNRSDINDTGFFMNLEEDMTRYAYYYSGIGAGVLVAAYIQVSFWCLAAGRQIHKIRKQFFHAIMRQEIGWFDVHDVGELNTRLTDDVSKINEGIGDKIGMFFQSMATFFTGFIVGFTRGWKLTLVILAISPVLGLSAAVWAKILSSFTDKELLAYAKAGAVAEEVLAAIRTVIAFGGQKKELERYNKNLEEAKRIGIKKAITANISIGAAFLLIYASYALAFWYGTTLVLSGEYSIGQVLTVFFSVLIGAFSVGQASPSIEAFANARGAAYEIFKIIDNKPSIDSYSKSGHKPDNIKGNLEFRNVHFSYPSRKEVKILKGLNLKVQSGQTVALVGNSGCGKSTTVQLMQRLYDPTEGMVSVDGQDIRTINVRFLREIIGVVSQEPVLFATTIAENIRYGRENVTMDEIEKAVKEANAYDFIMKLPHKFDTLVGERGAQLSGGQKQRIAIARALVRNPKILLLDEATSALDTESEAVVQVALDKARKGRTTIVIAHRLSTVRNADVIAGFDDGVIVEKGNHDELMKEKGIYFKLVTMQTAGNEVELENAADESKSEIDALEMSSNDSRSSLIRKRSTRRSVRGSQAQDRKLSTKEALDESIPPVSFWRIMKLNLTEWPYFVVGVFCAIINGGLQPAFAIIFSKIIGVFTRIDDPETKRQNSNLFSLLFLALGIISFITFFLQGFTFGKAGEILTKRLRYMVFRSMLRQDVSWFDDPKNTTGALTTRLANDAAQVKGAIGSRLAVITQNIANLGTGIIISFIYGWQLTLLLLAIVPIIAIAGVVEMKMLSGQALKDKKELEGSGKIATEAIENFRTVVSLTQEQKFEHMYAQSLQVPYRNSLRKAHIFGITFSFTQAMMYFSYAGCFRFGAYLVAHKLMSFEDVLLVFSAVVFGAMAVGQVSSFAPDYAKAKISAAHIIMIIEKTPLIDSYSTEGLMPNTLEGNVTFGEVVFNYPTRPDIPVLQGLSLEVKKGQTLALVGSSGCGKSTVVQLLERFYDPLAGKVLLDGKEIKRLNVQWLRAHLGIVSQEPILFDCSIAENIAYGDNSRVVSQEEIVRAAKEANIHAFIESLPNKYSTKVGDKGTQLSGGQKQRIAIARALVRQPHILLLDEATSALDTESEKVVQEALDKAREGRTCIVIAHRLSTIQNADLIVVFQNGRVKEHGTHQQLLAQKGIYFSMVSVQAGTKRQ

H2, sequence (P25021 whole entry): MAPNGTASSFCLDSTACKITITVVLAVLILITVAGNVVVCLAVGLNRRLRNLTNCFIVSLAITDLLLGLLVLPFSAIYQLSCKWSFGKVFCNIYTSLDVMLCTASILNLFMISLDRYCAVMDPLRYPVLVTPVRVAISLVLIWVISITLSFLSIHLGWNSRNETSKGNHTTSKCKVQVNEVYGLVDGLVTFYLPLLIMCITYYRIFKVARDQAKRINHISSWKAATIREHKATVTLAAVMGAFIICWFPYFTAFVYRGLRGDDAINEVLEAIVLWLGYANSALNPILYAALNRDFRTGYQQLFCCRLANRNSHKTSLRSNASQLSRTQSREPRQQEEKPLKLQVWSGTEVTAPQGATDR
SERT, sequence (P31645 whole entry, species assumed): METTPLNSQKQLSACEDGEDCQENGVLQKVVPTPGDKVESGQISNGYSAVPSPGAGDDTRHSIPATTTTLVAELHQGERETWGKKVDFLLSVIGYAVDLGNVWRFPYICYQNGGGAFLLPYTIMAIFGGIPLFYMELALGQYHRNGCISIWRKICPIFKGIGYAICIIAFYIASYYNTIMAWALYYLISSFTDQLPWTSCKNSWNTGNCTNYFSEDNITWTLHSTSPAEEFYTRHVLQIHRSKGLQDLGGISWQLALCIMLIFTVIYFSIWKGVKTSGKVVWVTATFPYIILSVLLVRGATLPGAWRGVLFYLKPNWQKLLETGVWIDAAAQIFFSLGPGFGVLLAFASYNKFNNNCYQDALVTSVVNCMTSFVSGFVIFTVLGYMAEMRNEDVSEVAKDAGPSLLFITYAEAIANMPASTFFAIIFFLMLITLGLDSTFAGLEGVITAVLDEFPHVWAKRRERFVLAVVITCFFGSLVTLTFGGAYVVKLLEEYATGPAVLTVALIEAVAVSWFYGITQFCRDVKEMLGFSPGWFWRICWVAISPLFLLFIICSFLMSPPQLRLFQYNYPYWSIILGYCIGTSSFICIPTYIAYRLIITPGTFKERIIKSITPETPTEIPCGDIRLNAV
Smoothened, sequence (Q99835 28-787): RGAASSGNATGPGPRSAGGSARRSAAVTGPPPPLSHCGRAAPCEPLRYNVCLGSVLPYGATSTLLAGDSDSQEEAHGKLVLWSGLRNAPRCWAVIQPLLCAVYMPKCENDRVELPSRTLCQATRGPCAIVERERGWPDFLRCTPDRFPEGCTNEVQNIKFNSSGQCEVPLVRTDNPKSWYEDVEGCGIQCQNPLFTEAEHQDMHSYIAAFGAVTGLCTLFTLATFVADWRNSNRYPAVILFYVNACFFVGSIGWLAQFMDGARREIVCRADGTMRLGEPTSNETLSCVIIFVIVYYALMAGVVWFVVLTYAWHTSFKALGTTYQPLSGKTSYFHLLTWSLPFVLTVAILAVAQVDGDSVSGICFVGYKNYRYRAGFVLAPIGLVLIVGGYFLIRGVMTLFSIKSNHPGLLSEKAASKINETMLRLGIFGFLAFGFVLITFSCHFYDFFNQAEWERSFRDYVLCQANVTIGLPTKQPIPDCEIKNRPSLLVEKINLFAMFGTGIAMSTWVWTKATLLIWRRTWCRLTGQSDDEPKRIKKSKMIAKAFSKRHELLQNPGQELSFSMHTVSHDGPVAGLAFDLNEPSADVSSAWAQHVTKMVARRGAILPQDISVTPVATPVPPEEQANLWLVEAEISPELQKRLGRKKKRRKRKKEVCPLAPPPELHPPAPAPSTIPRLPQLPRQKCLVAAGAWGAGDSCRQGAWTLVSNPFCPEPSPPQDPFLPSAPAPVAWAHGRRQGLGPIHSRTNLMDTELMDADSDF
DOR, sequence (P41143 whole entry): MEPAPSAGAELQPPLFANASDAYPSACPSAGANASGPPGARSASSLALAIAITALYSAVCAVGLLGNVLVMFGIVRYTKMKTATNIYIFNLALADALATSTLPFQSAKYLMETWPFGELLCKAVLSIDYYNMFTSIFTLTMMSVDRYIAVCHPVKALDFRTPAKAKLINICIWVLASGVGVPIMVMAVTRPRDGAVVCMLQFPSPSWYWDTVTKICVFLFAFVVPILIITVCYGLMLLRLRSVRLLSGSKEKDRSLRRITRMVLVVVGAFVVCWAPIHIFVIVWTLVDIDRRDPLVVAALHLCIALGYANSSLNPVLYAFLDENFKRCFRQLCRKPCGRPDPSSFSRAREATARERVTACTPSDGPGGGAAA
H1, sequence (P35367 whole entry): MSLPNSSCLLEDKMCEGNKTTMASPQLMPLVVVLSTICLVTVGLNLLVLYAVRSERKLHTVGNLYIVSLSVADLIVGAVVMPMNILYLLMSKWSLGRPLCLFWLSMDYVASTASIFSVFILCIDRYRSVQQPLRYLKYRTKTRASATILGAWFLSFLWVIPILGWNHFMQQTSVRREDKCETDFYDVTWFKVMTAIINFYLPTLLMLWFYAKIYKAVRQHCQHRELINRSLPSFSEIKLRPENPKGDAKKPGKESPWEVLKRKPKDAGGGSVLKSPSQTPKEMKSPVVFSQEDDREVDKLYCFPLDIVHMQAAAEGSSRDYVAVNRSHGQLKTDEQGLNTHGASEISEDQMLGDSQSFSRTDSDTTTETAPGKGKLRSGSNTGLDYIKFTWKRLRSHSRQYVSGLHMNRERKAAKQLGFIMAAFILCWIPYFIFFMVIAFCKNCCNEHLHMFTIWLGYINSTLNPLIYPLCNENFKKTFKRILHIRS
MOR, sequence (P35372 whole entry): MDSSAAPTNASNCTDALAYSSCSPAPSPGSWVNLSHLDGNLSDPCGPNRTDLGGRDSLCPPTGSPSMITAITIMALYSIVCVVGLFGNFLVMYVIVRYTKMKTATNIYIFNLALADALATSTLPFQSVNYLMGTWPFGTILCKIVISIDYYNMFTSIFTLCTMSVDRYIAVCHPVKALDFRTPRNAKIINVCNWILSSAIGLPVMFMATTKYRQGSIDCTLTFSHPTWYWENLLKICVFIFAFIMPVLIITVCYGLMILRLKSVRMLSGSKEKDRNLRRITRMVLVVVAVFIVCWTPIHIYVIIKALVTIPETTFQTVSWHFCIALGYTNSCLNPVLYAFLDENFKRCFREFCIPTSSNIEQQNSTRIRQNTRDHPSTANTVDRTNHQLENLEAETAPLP
DAT, sequence (Q01959 whole entry, species assumed): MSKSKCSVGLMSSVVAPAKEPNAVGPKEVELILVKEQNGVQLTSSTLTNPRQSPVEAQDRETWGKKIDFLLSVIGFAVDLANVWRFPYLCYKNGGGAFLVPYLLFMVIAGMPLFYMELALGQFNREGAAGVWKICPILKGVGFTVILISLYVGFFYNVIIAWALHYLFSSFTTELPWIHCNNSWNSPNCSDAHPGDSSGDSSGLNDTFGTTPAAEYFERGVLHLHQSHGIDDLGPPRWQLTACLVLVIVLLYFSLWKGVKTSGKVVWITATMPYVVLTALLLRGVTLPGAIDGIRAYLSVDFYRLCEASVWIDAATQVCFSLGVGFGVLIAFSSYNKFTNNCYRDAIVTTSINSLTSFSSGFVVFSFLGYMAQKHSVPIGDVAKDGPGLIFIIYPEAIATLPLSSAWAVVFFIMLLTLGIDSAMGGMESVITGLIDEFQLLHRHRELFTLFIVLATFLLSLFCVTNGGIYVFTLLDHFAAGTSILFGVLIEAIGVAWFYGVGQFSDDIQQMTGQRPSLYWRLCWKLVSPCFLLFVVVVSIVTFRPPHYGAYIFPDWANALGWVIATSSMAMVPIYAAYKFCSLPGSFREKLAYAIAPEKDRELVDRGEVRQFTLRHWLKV

Q: With `COc1ccc(N(C)c2ncnc3occ(C)c23)cc1` [HD-800, reference compound] as the compound, how does the Ki [1] read?
A: > 10 µM

Q: And the Ki [2]?
A: > 10 µM

Q: What about the IC50 [3] of the same compound?
A: 3.2 nM

Q: And the Ki [4]?
A: > 10 µM

Q: What about the Ki [5] of the same compound?
A: > 10 µM

Q: And the Ki [6]?
A: > 10 µM

Q: What about the Ki [7] of the same compound?
A: > 10 µM

Q: What about the Ki [8] of the same compound?
A: > 10 µM

Q: And the Ki [9]?
A: > 10 µM

Q: And the Ki [10]?
A: > 10 µM

Q: And the GI50 [11]?
A: < 10 nM

Q: What about the Ki [12] of the same compound?
A: > 10 µM

Q: And the Ki [13]?
A: > 10 µM

Q: What about the Ki [14] of the same compound?
A: > 10 µM

Q: What about the Ki [15] of the same compound?
A: > 10 µM

Q: And the Ki [16]?
A: > 10 µM

Q: What about the “tumor growth inhibition (TGI) compared with paclitaxel” value [17] of the same compound?
A: higher tumor growth inhibition (TGI) than paclitaxel

Q: And the Ki [18]?
A: > 10 µM

Q: And the Ki [19]?
A: > 10 µM

Q: What about the Ki [20] of the same compound?
A: > 10 µM

Q: And the BBB penetration [21]?
A: BBB penetrant

Q: And the Ki [22]?
A: > 10 µM

Q: What about the Ki [23] of the same compound?
A: > 10 µM

Q: What about the Ki [24] of the same compound?
A: 2360 nM

Q: What about the Ki [25] of the same compound?
A: > 10 µM

Q: And the Ki [26]?
A: > 10 µM

Q: What about the Ki [27] of the same compound?
A: > 10 µM

Q: And the Ki [28]?
A: > 10 µM

Q: And the Ki [29]?
A: > 10 µM

Q: What about the Ki [30] of the same compound?
A: > 10 µM

Q: And the “binding to a panel / variety of kinases” value [31]?
A: selective

Q: What about the Ki [32] of the same compound?
A: > 10 µM

Q: What about the Ki [33] of the same compound?
A: > 10 µM

Q: And the Ki [34]?
A: > 10 µM

Q: And the Ki [35]?
A: > 10 µM

Q: What about the Ki [36] of the same compound?
A: > 10 µM

Q: What about the Ki [37] of the same compound?
A: > 10 µM

Q: And the Ki [38]?
A: > 10 µM

Q: And the Ki [39]?
A: > 10 µM

Q: And the Ki [40]?
A: > 10 µM

Q: And the Ki [41]?
A: > 10 µM

Q: What about the Ki [42] of the same compound?
A: > 10 µM

Q: What about the Ki [43] of the same compound?
A: > 10 µM

Q: And the Ki [44]?
A: > 10 µM

Q: What about the Ki [45] of the same compound?
A: > 10 µM

Q: What about the Ki [46] of the same compound?
A: > 10 µM
